Key:
A549 [1] = experiment: Cytotoxicity against human A549 cells after 48 hrs by SRB assay; format: functional, cell-based; conditions: A549, 48 h
SF-295 [2] = experiment: Cytotoxicity against human SF295 cells at 50 uM after 48 hrs by SRB assay; format: functional; conditions: SF-295, 48 h, read-out: GI
HEp-2 [3] = experiment: Cytotoxicity against human Hep2 cells at 50 uM after 48 hrs by SRB assay; format: functional; conditions: HEp-2, 48 h, read-out: GI
A549 [4] = experiment: Cytotoxicity against human A549 cells at 30 uM after 48 hrs by SRB assay; format: functional; conditions: A549, 48 h, read-out: GI
PC-3 [5] = experiment: Cytotoxicity against human PC3 cells at 30 uM after 48 hrs by SRB assay; format: functional; conditions: PC-3, 48 h, read-out: GI
HL-60 [6] = experiment: Cytotoxicity against human HL60 cells after 48 hrs by SRB assay; format: functional, cell-based; conditions: HL-60, 48 h
HL-60 [7] = experiment: Cytotoxicity against human HL60 cells at 10 uM after 48 hrs by SRB assay; format: functional; conditions: HL-60, 48 h, read-out: GI
HCT-15 [8] = experiment: Cytotoxicity against human HCT15 cells at 30 uM after 48 hrs by SRB assay; format: functional; conditions: HCT-15, 48 h, read-out: GI
DU-145 [9] = experiment: Cytotoxicity against human DU145 cells at 10 uM after 48 hrs by SRB assay; format: functional; conditions: DU-145, 48 h, read-out: GI
HCT-15 [10] = experiment: Cytotoxicity against human HCT15 cells at 10 uM after 48 hrs by SRB assay; format: functional; conditions: HCT-15, 48 h, read-out: GI
HL-60 [11] = experiment: Cytotoxicity against human HL60 cells at 50 uM after 48 hrs by SRB assay; format: functional; conditions: HL-60, 48 h, read-out: GI
HL-60 [12] = experiment: Cytotoxicity against human HL60 cells at 30 uM after 48 hrs by SRB assay; format: functional; conditions: HL-60, 48 h, read-out: GI
DU-145 [13] = experiment: Cytotoxicity against human DU145 cells at 30 uM after 48 hrs by SRB assay; format: functional; conditions: DU-145, 48 h, read-out: GI
SF-295 [14] = experiment: Cytotoxicity against human SF295 cells at 10 uM after 48 hrs by SRB assay; format: functional; conditions: SF-295, 48 h, read-out: GI
SF-295 [15] = experiment: Cytotoxicity against human SF295 cells at 30 uM after 48 hrs by SRB assay; format: functional; conditions: SF-295, 48 h, read-out: GI
HEp-2 [16] = experiment: Cytotoxicity against human Hep2 cells after 48 hrs by SRB assay; format: functional, cell-based; conditions: HEp-2, 48 h
PC-3 [17] = experiment: Cytotoxicity against human PC3 cells after 48 hrs by SRB assay; format: functional, cell-based; conditions: PC-3, 48 h
THP-1 [18] = experiment: Cytotoxicity against human THP1 cells at 50 uM after 48 hrs by SRB assay; format: functional; conditions: THP-1, 48 h, read-out: GI
PC-3 [19] = experiment: Cytotoxicity against human PC3 cells at 10 uM after 48 hrs by SRB assay; format: functional; conditions: PC-3, 48 h, read-out: GI
MCF7 [20] = experiment: Cytotoxicity against human MCF7 cells at 50 uM after 48 hrs by SRB assay; format: functional; conditions: MCF7, 48 h, read-out: GI
THP-1 [21] = experiment: Cytotoxicity against human THP1 cells at 30 uM after 48 hrs by SRB assay; format: functional; conditions: THP-1, 48 h, read-out: GI
MCF7 [22] = experiment: Cytotoxicity against human MCF7 cells after 48 hrs by SRB assay; format: functional, cell-based; conditions: MCF7, 48 h
THP-1 [23] = experiment: Cytotoxicity against human THP1 cells after 48 hrs by SRB assay; format: functional, cell-based; conditions: THP-1, 48 h
PC-3 [24] = experiment: Cytotoxicity against human PC3 cells at 50 uM after 48 hrs by SRB assay; format: functional; conditions: PC-3, 48 h, read-out: GI
A549 [25] = experiment: Cytotoxicity against human A549 cells at 50 uM after 48 hrs by SRB assay; format: functional; conditions: A549, 48 h, read-out: GI
DU-145 [26] = experiment: Cytotoxicity against human DU145 cells at 50 uM after 48 hrs by SRB assay; format: functional; conditions: DU-145, 48 h, read-out: GI
HCT-15 [27] = experiment: Cytotoxicity against human HCT15 cells at 50 uM after 48 hrs by SRB assay; format: functional; conditions: HCT-15, 48 h, read-out: GI
HCT-15 [28] = experiment: Cytotoxicity against human HCT15 cells after 48 hrs by SRB assay; format: functional, cell-based; conditions: HCT-15, 48 h
MCF7 [29] = experiment: Cytotoxicity against human MCF7 cells at 30 uM after 48 hrs by SRB assay; format: functional; conditions: MCF7, 48 h, read-out: GI
MCF7 [30] = experiment: Cytotoxicity against human MCF7 cells at 10 uM after 48 hrs by SRB assay; format: functional; conditions: MCF7, 48 h, read-out: GI
DU-145 [31] = experiment: Cytotoxicity against human DU145 cells after 48 hrs by SRB assay; format: functional, cell-based; conditions: DU-145, 48 h
HEp-2 [32] = experiment: Cytotoxicity against human Hep2 cells at 30 uM after 48 hrs by SRB assay; format: functional; conditions: HEp-2, 48 h, read-out: GI
THP-1 [33] = experiment: Cytotoxicity against human THP1 cells at 10 uM after 48 hrs by SRB assay; format: functional; conditions: THP-1, 48 h, read-out: GI
A549 [34] = experiment: Cytotoxicity against human A549 cells at 10 uM after 48 hrs by SRB assay; format: functional; conditions: A549, 48 h, read-out: GI
HEp-2 [35] = experiment: Cytotoxicity against human Hep2 cells at 10 uM after 48 hrs by SRB assay; format: functional; conditions: HEp-2, 48 h, read-out: GI
SF-295 [36] = experiment: Cytotoxicity against human SF295 cells after 48 hrs by SRB assay; format: functional, cell-based; conditions: SF-295, 48 h

## C=C(C)[C@@H]1CC[C@]2(C(=O)O)CC[C@]3(C)[C@H](CC[C@@H]4[C@@]5(C)CC[C@H](O)C(C)(C)[C@@H]5CC[C@]43C)[C@@H]12 [BETULINIC ACID]
A549 [1]
  IC50: 31 µM
SF-295 [2]
  inhibition of growth at 50 µM: 99%
HEp-2 [3]
  inhibition of growth at 50 µM: 78%
A549 [4]
  inhibition of growth at 30 µM: 48%
PC-3 [5]
  inhibition of growth at 30 µM: 29%
HL-60 [6]
  IC50: 17 µM
HL-60 [7]
  inhibition of growth at 10 µM: 35%
HCT-15 [8]
  inhibition of growth at 30 µM: 80%
DU-145 [9]
  inhibition of growth at 10 µM: 12%
HCT-15 [10]
  inhibition of growth at 10 µM: 45%
HL-60 [11]
  inhibition of growth at 50 µM: 98%
HL-60 [12]
  inhibition of growth at 30 µM: 73%
DU-145 [13]
  inhibition of growth at 30 µM: 70%
SF-295 [14]
  inhibition of growth at 10 µM: 11%
SF-295 [15]
  inhibition of growth at 30 µM: 88%
HEp-2 [16]
  IC50: 16 µM
PC-3 [17]
  IC50: 37 µM
THP-1 [18]
  inhibition of growth at 50 µM: 99%
PC-3 [19]
  inhibition of growth at 10 µM: 8%
MCF7 [20]
  inhibition of growth at 50 µM: 80%
THP-1 [21]
  inhibition of growth at 30 µM: 69%
MCF7 [22]
  IC50: 37 µM
THP-1 [23]
  IC50: 20 µM
PC-3 [24]
  inhibition of growth at 50 µM: 94%
A549 [25]
  inhibition of growth at 50 µM: 74%
DU-145 [26]
  inhibition of growth at 50 µM: 84%
HCT-15 [27]
  inhibition of growth at 50 µM: 94%
HCT-15 [28]
  IC50: 12 µM
MCF7 [29]
  inhibition of growth at 30 µM: 36%
MCF7 [30]
  inhibition of growth at 10 µM: 7%
DU-145 [31]
  IC50: 22 µM
HEp-2 [32]
  inhibition of growth at 30 µM: 66%
THP-1 [33]
  inhibition of growth at 10 µM: 30%
A549 [34]
  inhibition of growth at 10 µM: 20%
HEp-2 [35]
  inhibition of growth at 10 µM: 41%
SF-295 [36]
  IC50: 22 µM

## C=C(C)[C@@H]1CC[C@]2(C(=O)O)CC[C@]3(C)[C@H](CC[C@@H]4[C@@]5(C)CC[C@H](OCc6cn(-c7cccc(I)c7)nn6)C(C)(C)[C@@H]5CC[C@]43C)[C@@H]12
A549 [1]
  IC50: > 50 µM
SF-295 [2]
  inhibition of growth at 50 µM: 66%
HEp-2 [3]
  inhibition of growth at 50 µM: 72%
A549 [4]
  inhibition of growth at 30 µM: 27%
PC-3 [5]
  inhibition of growth at 30 µM: 24%
HL-60 [6]
  IC50: 43 µM
HL-60 [7]
  inhibition of growth at 10 µM: 13%
HCT-15 [8]
  inhibition of growth at 30 µM: 45%
DU-145 [9]
  inhibition of growth at 10 µM: 23%
HCT-15 [10]
  inhibition of growth at 10 µM: 29%
HL-60 [11]
  inhibition of growth at 50 µM: 64%
HL-60 [12]
  inhibition of growth at 30 µM: 45%
DU-145 [13]
  inhibition of growth at 30 µM: 62%
SF-295 [14]
  inhibition of growth at 10 µM: 6%
SF-295 [15]
  inhibition of growth at 30 µM: 27%
HEp-2 [16]
  IC50: 3.8 µM
PC-3 [17]
  IC50: 39 µM
THP-1 [18]
  inhibition of growth at 50 µM: 56%
PC-3 [19]
  inhibition of growth at 10 µM: 8%
MCF7 [20]
  inhibition of growth at 50 µM: 61%
THP-1 [21]
  inhibition of growth at 30 µM: 41%
MCF7 [22]
  IC50: 8 µM
THP-1 [23]
  IC50: 46 µM
PC-3 [24]
  inhibition of growth at 50 µM: 27%
A549 [25]
  inhibition of growth at 50 µM: 33%
DU-145 [26]
  inhibition of growth at 50 µM: 62%
HCT-15 [27]
  inhibition of growth at 50 µM: 54%
HCT-15 [28]
  IC50: 39 µM
MCF7 [29]
  inhibition of growth at 30 µM: 58%
MCF7 [30]
  inhibition of growth at 10 µM: 51%
DU-145 [31]
  IC50: 25 µM
HEp-2 [32]
  inhibition of growth at 30 µM: 74%
THP-1 [33]
  inhibition of growth at 10 µM: 9%
A549 [34]
  inhibition of growth at 10 µM: 28%
HEp-2 [35]
  inhibition of growth at 10 µM: 71%
SF-295 [36]
  IC50: 44 µM

## C=C(C)[C@@H]1CC[C@]2(C(=O)O)CC[C@]3(C)[C@H](CC[C@@H]4[C@@]5(C)CC[C@H](OCc6cn(-c7ccccc7CO)nn6)C(C)(C)[C@@H]5CC[C@]43C)[C@@H]12
A549 [1]
  IC50: 14 µM
SF-295 [2]
  inhibition of growth at 50 µM: 77%
HEp-2 [3]
  inhibition of growth at 50 µM: 64%
A549 [4]
  inhibition of growth at 30 µM: 55%
PC-3 [5]
  inhibition of growth at 30 µM: 28%
HL-60 [6]
  IC50: 10 µM
HL-60 [7]
  inhibition of growth at 10 µM: 50%
HCT-15 [8]
  inhibition of growth at 30 µM: 80%
DU-145 [9]
  inhibition of growth at 10 µM: 43%
HCT-15 [10]
  inhibition of growth at 10 µM: 50%
HL-60 [11]
  inhibition of growth at 50 µM: 80%
HL-60 [12]
  inhibition of growth at 30 µM: 69%
DU-145 [13]
  inhibition of growth at 30 µM: 55%
SF-295 [14]
  inhibition of growth at 10 µM: 35%
SF-295 [15]
  inhibition of growth at 30 µM: 72%
HEp-2 [16]
  IC50: 14 µM
PC-3 [17]
  IC50: 49 µM
THP-1 [18]
  inhibition of growth at 50 µM: 78%
PC-3 [19]
  inhibition of growth at 10 µM: 10%
MCF7 [20]
  inhibition of growth at 50 µM: 80%
THP-1 [21]
  inhibition of growth at 30 µM: 65%
MCF7 [22]
  IC50: 10 µM
THP-1 [23]
  IC50: 15 µM
PC-3 [24]
  inhibition of growth at 50 µM: 52%
A549 [25]
  inhibition of growth at 50 µM: 57%
DU-145 [26]
  inhibition of growth at 50 µM: 65%
HCT-15 [27]
  inhibition of growth at 50 µM: 82%
HCT-15 [28]
  IC50: 10 µM
MCF7 [29]
  inhibition of growth at 30 µM: 72%
MCF7 [30]
  inhibition of growth at 10 µM: 50%
DU-145 [31]
  IC50: 16 µM
HEp-2 [32]
  inhibition of growth at 30 µM: 61%
THP-1 [33]
  inhibition of growth at 10 µM: 45%
A549 [34]
  inhibition of growth at 10 µM: 54%
HEp-2 [35]
  inhibition of growth at 10 µM: 45%
SF-295 [36]
  IC50: 17 µM

Source: ChEMBL document CHEMBL2380302, “Synthesis of 3-O-propargylated betulinic acid and its 1,2,3-triazoles as potential apoptotic agents” (Eur J Med Chem, 2013)
